Data from patent US20230406883A1, “COMPOUNDS AND THEIR USE IN TREATMENT OF TACHYKININ RECEPTOR MEDIATED DISORDERS” (Embark Biotech ApS, priority 2020, published 2023).
Numbered stars: 1 amine (or outer) side, 2 acyl side, 3 side chain; on linkers, the order of the positions; unused ones are H or OH. Square brackets hold non-standard residues; d marks the D form. Peptide text beside a SMILES is read from it. * marks the point of attachment. C18 diacid = O=C(O)CCCCCCCCCCCCCCCCC(=O)*; γGlu = O=C(O)[C@H](CCC(=O)[*:2])N[*:1]; NMeL = CN[C@@H](CC(C)C)C(=O)O; hSer = N[C@@H](CCO)C(=O)O; Nle = CCCC[C@H](N)C(=O)O; AEEA = NCCOCCOCC(=O)O

Key:
[1] = Intraperitoneal insulin tolerance test (ipITT) in DIO mice; type: in vivo; conditions: 325 nmol/kg s.c. once, test 24 hours after treatment
Experimental: Insulin tolerance test: The effect on insulin tolerance was determined using intraperitoneal insulin tolerance test (ipITT) 24 hours after single subcutaneous injection of NK2R-selective analogue in DIO mice. At day of experimentation, mice were fasted two hours prior to receiving 1.5 U/kg insulin diluted in saline solution (0.2 mL/kg) by intraperitoneal injection. Change in glucose was monitored using glucometer.

hNK2R = target: T1, hNK2R (Homo sapiens, UniProt P21452); assay: Indirect human serum albumin binding by IP3 assay, 0.2% ovalbumin vs 1% HSA; type: cell-based; conditions: for hNK2R, Albumin binding Efficacy (%)-ovalbumin: 0.2% ovalbumin; for hNK2R, Albumin binding Efficacy (%)-1% human serum albumin / EC50: 1% HSA; for EC50: read-out: hNK2R, Albumin binding EC50 (nM)-1% human serum albumin
T1 construct: host or cells: COS-7
T1 sequence (P21452 1-398): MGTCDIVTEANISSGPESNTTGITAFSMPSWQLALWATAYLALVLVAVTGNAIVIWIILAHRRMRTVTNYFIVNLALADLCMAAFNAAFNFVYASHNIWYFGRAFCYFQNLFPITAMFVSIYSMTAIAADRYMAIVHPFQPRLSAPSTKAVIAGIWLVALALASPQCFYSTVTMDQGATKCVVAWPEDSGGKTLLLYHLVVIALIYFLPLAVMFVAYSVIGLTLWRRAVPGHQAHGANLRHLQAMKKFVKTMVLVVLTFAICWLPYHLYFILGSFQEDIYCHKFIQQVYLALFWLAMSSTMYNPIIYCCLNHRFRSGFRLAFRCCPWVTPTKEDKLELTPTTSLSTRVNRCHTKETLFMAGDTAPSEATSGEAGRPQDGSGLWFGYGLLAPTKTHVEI
Experimental: Agonist-induced G-protein coupled receptor (GPCR) activation was measured by an Inositol-1,4,5-Trisphosphate [^3H] Radioreceptor Assay (IPs Assay). Assays were carried out using COS-7 cells transiently transfected by calcium phosphate transfection with a vector pcDNA3.1(+) encoding one of the indicated receptors (Genscript). Briefly, DNA mixed with CaCl2 (2 M) and TE-buffer (10 mM Tris-HCl, 1 mM EDTA, pH 7.5) was dropwise added to 2×HBS (50 mM HEPES, 280 mM NaCl, 1.5 mM NaH2PO4, pH 7.2) and incubated for 45 min at room temperature (22±2° C.). The mixture and a final concentration of 100 μM Chloroquine were added to the cells and left to incubate for 5 hours at 37° C. under standard cell culture conditions (10% CO2) before changing medium to fresh medium containing 5 μl/mL Myo-[2-^3H(N)]-inositol (labeling medium).
The indirect HSA binding IP3 assay takes advantage of the tachykinin receptors' ability to induce production of the inositol trisphosphate (IP3) second messenger upon agonist (ligand) binding on receptor expressing cells following an initial ^3H-inositol labeling period. The assay relies on the assumption that high peptide HSA binding will result in low receptor-mediated production of the second messenger IP3. Thus, the assay is an indirect assessment HSA binding.
Assay solutions used: Wash buffer (HBSS), Assay buffer 0.2% OvAlb (HBSS+10 mM LiCl and 0,2% w/v ovalbumin) or Assay buffer 1% HSA (HBSS+10 mM LiCl and 1% w/v HSA), Lysis buffer (10 mM formic acid), and SPA YSI beads (12.5 mg/ml in H2O). The assay was performed the day after transfection. Briefly, labelling medium was aspirated, and plates were washed ×1 in wash buffer before adding 100 μl assay buffer 0.2% OvAlb or assay buffer 1% HSA, pre-incubated for 30 min followed by 120 min incubation with agonist, both at 37° C. After incubation, plates were immediately placed on ice and the incubation medium was aspirated and 40 μl of 10 mM formic acid per well was added. Plates were incubated for at least 30 min on ice. 60 μl (1 mg/well) SPA YSI beads/well was pipetted into a solid white 96 wells plate and 35 μl of the lysis solution was transferred to the plate before covering plates with seal cover and shaking for 10 min. (max speed). Centrifuge plates and leave for 8 hours at room temperature before counting the plates in a MicroBeta plate counter (Perkin Elmer).

[2] = Loperamide-induced dysfunctional voiding test; type: in vivo; conditions: lean wild-type mice, Loperamide 5 mg/kg, compound 130, 260, 325 nmol/kg s.c.
Experimental: Dysfunctional voiding test: To investigate the effect on dysfunctional voiding, constipation was induced in lean wild-type, male and female, mice using Loperamide (5 mg/kg). 30 minutes after gavage, mice were subcutaneously dosed with either vehicle, 130, 260 and for males also 325 nmol/kg of EB344. 6 hours post Loperamide gavage, mice were removed from the cage and number of feces pellets were counted.

[3] = Intraperitoneal glucose tolerance test (ipGTT) in DIO mice; type: in vivo; conditions: 325 nmol/kg s.c. once, test 24 hours after treatment
Experimental: Glucose tolerance test: The effect on glucose tolerance was determined using intraperitoneal glucose tolerance test (ipGTT) 24 hours after single subcutaneous injection of NK2R-selective analogue in DIO mice. At day of experimentation, mice were fasted four hours prior to receiving 1 g/kg glucose diluted in saline solution ([…]) by intraperitoneal injection. Change in glucose was monitored using glucometer.

[4] = Energy expenditure screening by indirect calorimetry in diet-induced obese mice; type: in vivo; conditions: DIO mice, 0.5 mg/kg s.c., increase over vehicle
Experimental: Indirect calorimetry was used to evaluate the ability of individual peptide analogues to dose-dependently increase energy expenditure (EE) we used metabolic cages and indirect calorimetry measured by the Promethion system. To this end, oxygen consumption was used as a surrogate measure for EE. Substrate preference (fat or carbohydrate) was evaluated using the respiratory exchange ratio (RER). In parallel, behavioral information such as walking distance and water and food intake were recorded.
Prior to experimentation, DIO mice were transferred to habituation cages for at least 10 days (5 days outside and at least 5 days in the Sable Systems gas analyzer module) to acclimatize. For all in vivo compound tests for EE evaluation, mice received subcutaneous injections between 2 and 4 pm.
Energy expenditure screening: After habituation, mice were subcutaneously injected with 0.5 mg/kg peptide analogue in a volume of 2 ml/kg. Mice were injected q.a.d. (quaque altera die) and received a total of two injections. EE was evaluated and increase over vehicle was calculated as percent of mean oxygen consumption over a 30-hour period after injection. Prior to injection peptide analogues were dissolved to 0.25 mg/ml in in vivo buffer.

| Compound | Insulin tolerance (ipITT) [1] | hNK2R, Albumin binding Efficacy (%)-ovalbumin (hNK2R) [%] | hNK2R, Albumin binding Efficacy (%)-1% human serum albumin (hNK2R) | EC50 (hNK2R) [nM] | Loperamide-induced dysfunctional voiding (number of feces pellets during six hours) [2] | Glucose tolerance (ipGTT) [3] | Energy expenditure (percent of vehicle; based on 30 h average vO2) [4] |
| --- | --- | --- | --- | --- | --- | --- | --- |
| COCC[C@H](NC(=O)[C@H](CC(C)C)N(C)C(=O)CNC(=O)[C@@H](NC(=O)[C@H](Cc1ccc(O)cc1)NC(=O)[C@H](CCCCN)NC(=O)[C@H](CC(=O)O)NC(=O)COCCOCCNC(=O)COCCOCCNC(=O)CC[C@H](NC(=O)CCCCCCCCCCCCCCCCC(=O)O)C(=O)O)C(C)C)C(N)=O [compound 344, *Asp;Lys;Tyr;Val;Gly;NmLeu;Metox;NH2] ({C18 diacid-γGlu-AEEA-AEEA}-DKYVG[NMeL][hSer](Me)-NH2) | improved both glucose and insulin tolerance | 95 | 60% | 260 | improved Loperamide-induced dysfunctional voiding in a dose-dependent manner | improved both glucose and insulin tolerance |  |
| CCCC[C@H](NC(=O)[C@H](CC(C)C)N(C)C(=O)CNC(=O)[C@@H](NC(=O)[C@H](Cc1ccc(O)cc1)NC(=O)[C@H](CCCCN)NC(=O)[C@H](CC(=O)O)NC(=O)COCCOCCNC(=O)COCCOCCNC(=O)CC[C@H](NC(=O)CCCCCCCCCCCCCCCCC(=O)O)C(=O)O)C(C)C)C(N)=O [compound 305, *Asp;Lys;Tyr;Val;Gly;NmLeu;Nle;NH2] ({C18 diacid-γGlu-AEEA-AEEA}-DKYVG[NMeL][Nle]-NH2) |  | 83 | 45-51% | 260 |  |  | 9% of vehicle |
